The values below come from paper PMC11828871, “Structural basis of anticancer drug recognition and amino acid transport by LAT1” (Nature Communications, 2025).

The target of assay [1] is T1, LAT1 (Homo sapiens, UniProt Q01650, F252W).
T1 construct: gene SLC7A5; F252W LAT1 co-expressed with CD98hc in Xenopus oocytes; with CD98hc (4F2hc; SLC3A2)
Briefly: inhibition of L-[…]Leu uptake in Xenopus oocytes. In kind it is cell-based.

Assay [2] deals with T2, LAT1 (Homo sapiens, UniProt Q01650, F400V).
T2 construct: gene SLC7A5; F400V LAT1 expressed in Xenopus oocytes; with CD98hc (4F2hc; SLC3A2)
The assay is described as follows: inhibition of L-[…]Leu uptake in Xenopus oocytes. It counts as cell-based.

Assay [3] addresses T3, LAT1 (Homo sapiens, UniProt Q01650).
T3 construct: gene SLC7A5; LAT1–CD98hc in lipid nanodiscs with Fab170; with CD98hc (4F2hc; SLC3A2)
Briefly: cryo-EM structure in nanodiscs ([…] Å); IC50 from L-[…]Leu uptake in Xenopus oocytes. In kind it is cell-based.

Assay [4] deals with T3, LAT1. The assay is described as follows: cryo-EM structure ([…] Å, occluded); cis inhibition and counterflow assays in oocytes.
Assay [5] addresses T3, LAT1. Briefly: cryo-EM structure (outward-open, nanodisc).

T3 sequence (Q01650 whole entry): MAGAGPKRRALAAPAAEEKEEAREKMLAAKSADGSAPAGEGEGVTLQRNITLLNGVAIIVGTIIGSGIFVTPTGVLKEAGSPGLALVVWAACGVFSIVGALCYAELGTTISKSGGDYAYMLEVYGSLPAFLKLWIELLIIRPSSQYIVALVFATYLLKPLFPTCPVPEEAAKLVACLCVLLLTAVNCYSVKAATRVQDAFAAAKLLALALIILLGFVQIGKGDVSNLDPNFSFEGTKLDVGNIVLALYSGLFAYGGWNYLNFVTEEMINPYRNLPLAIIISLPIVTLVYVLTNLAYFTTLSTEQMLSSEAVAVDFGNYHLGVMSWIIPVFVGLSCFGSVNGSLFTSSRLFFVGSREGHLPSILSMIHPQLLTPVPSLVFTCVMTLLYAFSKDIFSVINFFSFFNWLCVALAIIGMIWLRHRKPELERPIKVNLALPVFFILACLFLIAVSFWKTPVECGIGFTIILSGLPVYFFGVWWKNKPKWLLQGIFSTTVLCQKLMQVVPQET
T3 sequence (P08195 103-630 partner): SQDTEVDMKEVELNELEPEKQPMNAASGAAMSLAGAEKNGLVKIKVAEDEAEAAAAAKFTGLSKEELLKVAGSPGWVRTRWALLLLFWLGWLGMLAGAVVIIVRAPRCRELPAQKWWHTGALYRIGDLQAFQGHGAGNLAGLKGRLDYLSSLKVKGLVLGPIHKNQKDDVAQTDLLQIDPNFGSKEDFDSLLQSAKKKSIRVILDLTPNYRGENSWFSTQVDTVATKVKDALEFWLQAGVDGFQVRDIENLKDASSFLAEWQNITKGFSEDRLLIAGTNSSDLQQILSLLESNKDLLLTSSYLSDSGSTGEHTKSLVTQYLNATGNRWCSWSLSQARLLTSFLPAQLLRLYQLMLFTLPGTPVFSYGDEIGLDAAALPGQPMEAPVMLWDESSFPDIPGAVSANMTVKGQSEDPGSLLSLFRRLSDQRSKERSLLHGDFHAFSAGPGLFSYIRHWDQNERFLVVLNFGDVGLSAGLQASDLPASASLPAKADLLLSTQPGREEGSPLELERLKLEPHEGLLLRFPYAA
T1 sequence (Q01650 whole entry F252W): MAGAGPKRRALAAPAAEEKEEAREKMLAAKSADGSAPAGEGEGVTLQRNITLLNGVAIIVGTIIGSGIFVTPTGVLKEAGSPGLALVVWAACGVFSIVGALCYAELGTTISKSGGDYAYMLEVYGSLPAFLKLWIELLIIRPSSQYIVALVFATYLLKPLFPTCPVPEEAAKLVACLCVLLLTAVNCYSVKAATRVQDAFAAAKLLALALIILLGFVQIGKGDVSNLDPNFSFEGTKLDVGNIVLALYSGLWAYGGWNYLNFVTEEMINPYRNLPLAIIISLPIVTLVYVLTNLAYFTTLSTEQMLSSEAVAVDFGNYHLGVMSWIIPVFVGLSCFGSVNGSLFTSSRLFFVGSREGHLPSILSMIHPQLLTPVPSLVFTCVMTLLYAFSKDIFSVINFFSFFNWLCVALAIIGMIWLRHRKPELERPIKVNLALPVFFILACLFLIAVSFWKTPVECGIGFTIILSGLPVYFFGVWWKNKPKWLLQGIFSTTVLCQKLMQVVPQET
T1 sequence (P08195 103-630 partner): as the sequence (P08195 103-630 partner) above
T2 sequence (Q01650 whole entry F400V): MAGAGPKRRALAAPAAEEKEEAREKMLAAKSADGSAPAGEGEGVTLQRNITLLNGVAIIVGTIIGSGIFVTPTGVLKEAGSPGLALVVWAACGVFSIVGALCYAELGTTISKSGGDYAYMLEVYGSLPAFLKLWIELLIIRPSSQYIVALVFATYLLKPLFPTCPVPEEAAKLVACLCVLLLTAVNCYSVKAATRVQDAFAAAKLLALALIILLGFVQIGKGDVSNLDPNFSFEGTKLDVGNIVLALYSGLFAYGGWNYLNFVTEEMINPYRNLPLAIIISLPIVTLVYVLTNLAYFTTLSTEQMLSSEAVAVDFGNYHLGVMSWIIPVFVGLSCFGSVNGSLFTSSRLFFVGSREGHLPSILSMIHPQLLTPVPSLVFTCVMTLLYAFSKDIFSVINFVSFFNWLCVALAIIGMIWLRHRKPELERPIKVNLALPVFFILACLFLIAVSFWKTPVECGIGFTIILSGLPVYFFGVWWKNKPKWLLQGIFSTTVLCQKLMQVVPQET
T2 sequence (P08195 103-630 partner): as the sequence (P08195 103-630 partner) above

Usually IC50 stands for the concentration needed to halve the response being measured. The low end stands for greater potency in that assay, the high end for weaker potency in that assay. In the case of `Nc1cc(COc2c(Cl)cc(C[C@H](N)C(=O)O)cc2Cl)c2oc(-c3ccccc3)nc2c1` [JPH203, (S)-2-amino-3-(4-((5-amino-2-phenylbenzo [d]oxazol-7-yl)methoxy)-3,5-dichlorophenyl) propanoic acid], the values for the half-inhibitory concentration (IC50) in assay [1] and in assay [3] were 36 nM and 542 nM, respectively. For the same molecule, in assay [2], the “inhibition of L-[14C]Leu uptake in Xenopus oocytes” value was “the variant F400V retained its activity and was sensitive to JPH203”. Regarding `NC1(C(=O)O)CC2CCC1C2` (centres unmarked) [BCH, 2-aminobicyclo[2.2.1]heptane-2-carboxylic acid], the “cryo-EM structure (3.7 Å, occluded); cis inhibition and counterflow assays in oo” value in assay [4] is “BCH is bound in the canonical substrate-binding pocket, with its carboxy and amino moieties recognized”. Take `N[C@@H](Cc1ccc(N(CCCl)CCCl)cc1)C(=O)O` [melphalan]: the “cryo-EM structure (outward-open, nanodisc)” value in assay [5] was “bis-(2-chloroethyl)amino side group is placed in the space surrounded by TM3, TM6a and TM10”.
